Some test systems named below: K-562 leukemia; HCC-2998 colon; SF-539 CNS; OVCAR-5 ovarian; NCI-H23 lung; NCI-H460 lung; SN12C renal; HT29 colon; SF-268 CNS; KM12 colon; U251 CNS; SK-OV-3 ovarian; EKVX NSCLC; DU-145 prostate; HS 578T breast; PC-3 prostate; MCF7 breast; MDA-MB-231 breast; MDA-N.
Common to all, as to assay: inhibition of tumour cell growth, NCI panel, 48 h

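Cultured in 96-well plates, cells were exposed to test compound for 48 hours across five concentrations. Definition used: TGI = concentration required for complete inhibition of growth.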

As to `Nc1ncnc2sc(Nc3ccccc3)nc12`, the TGI with K-562 leukemia, with HCC-2998 colon, in the experiment with SF-539 CNS, in the experiment with OVCAR-5 ovarian, in the experiment with NCI-H23 lung and in the experiment with NCI-H460 lung was > 100 µM throughout. Besides, the TGI in the experiment on SN12C renal, in the experiment on HT29 colon, with SF-268 CNS, with KM12 colon, in the experiment with U251 CNS and in the experiment with SK-OV-3 ovarian was > 100 µM in each case.
On to `Clc1ccc(Cn2cc(/C=N/n3cnnc3)c3ccccc32)cc1`, for which the TGI is > 100 µM in the experiment with K-562 leukemia; > 100 µM in the experiment on EKVX NSCLC; 31.4 µM in the experiment with HCC-2998 colon; > 100 µM with SF-539 CNS; > 100 µM in the experiment with DU-145 prostate; 42.5 µM with OVCAR-5 ovarian. Besides, the TGI in the experiment with HS 578T breast is > 100 µM; with NCI-H23 lung, > 100 µM; with NCI-H460 lung, 75 µM; in the experiment with SN12C renal, > 100 µM; in the experiment on HT29 colon, > 100 µM; with PC-3 prostate, > 100 µM. Further, the TGI was > 100 µM with MCF7 breast; > 100 µM in the experiment with SF-268 CNS; > 100 µM with KM12 colon; > 100 µM in the experiment with U251 CNS; 74.5 µM in the experiment on MDA-MB-231 breast; > 100 µM with SK-OV-3 ovarian.
For the compound `Cn1c(=O)c(C(=O)NC23CC4CC(CC(C4)C2)C3)c(O)c2ccccc21`, the TGI was > 100 µM in the experiment with K-562 leukemia; > 100 µM in the experiment on EKVX NSCLC; > 100 µM with SF-539 CNS; > 100 µM in the experiment with NCI-H23 lung; 51.1 µM in the experiment on NCI-H460 lung; 54.8 µM in the experiment with SN12C renal. For the same compound, the TGI is 48.1 µM in the experiment on HT29 colon; > 100 µM in the experiment on SF-268 CNS; > 100 µM in the experiment with KM12 colon; 59.7 µM in the experiment on U251 CNS; 73.4 µM with SK-OV-3 ovarian.
Regarding `COc1cccc(-c2[nH]c3cc4c(cc3c(=O)c2C(=O)O)OCO4)c1`, the TGI with K-562 leukemia is > 100 µM; with EKVX NSCLC it was > 100 µM; with HCC-2998 colon, 74.6 µM; in the experiment on SF-539 CNS it was 69.4 µM; in the experiment with MDA-N, 51.5 µM; in the experiment on DU-145 prostate it was > 100 µM. The TGI with OVCAR-5 ovarian, in the experiment with NCI-H23 lung, with NCI-H460 lung, in the experiment on SN12C renal, in the experiment on HT29 colon and in the experiment on PC-3 prostate was > 100 µM each time. Besides, the TGI in the experiment on MCF7 breast, with KM12 colon, with U251 CNS and with MDA-MB-231 breast was > 100 µM in each case.
As to `CC(=O)Nc1sccc1S(=O)(=O)c1ccc(Cl)cc1`, the TGI in the experiment with K-562 leukemia, in the experiment on EKVX NSCLC, with HCC-2998 colon, with SF-539 CNS, in the experiment with DU-145 prostate and in the experiment on OVCAR-5 ovarian was > 100 µM each time. The TGI with HS 578T breast, in the experiment with NCI-H23 lung, with NCI-H460 lung, in the experiment on SN12C renal, in the experiment on HT29 colon and in the experiment with PC-3 prostate was > 100 µM throughout. In addition, the TGI with MCF7 breast, in the experiment with SF-268 CNS, in the experiment with KM12 colon, in the experiment on U251 CNS, with MDA-MB-231 breast and in the experiment on SK-OV-3 ovarian was > 100 µM in each case.
As for `Nc1ncnc2c1ncn2CCOC(c1ccccc1)P(=O)(O)O` (stereo not given), the TGI in the experiment on EKVX NSCLC, in the experiment on HCC-2998 colon, in the experiment on SF-539 CNS, in the experiment with OVCAR-5 ovarian, with NCI-H23 lung and in the experiment with NCI-H460 lung was > 100 µM in each case. Also, the TGI in the experiment with SN12C renal, in the experiment with HT29 colon, with SF-268 CNS, with KM12 colon, in the experiment with U251 CNS and in the experiment with SK-OV-3 ovarian was > 100 µM each time.
Take `O=C(O)Cc1ccc(Oc2nc3ccccc3nc2-c2ccccc2)cc1`: the TGI with K-562 leukemia was > 100 µM; in the experiment with EKVX NSCLC it was 79.5 µM; in the experiment with HCC-2998 colon, 99.5 µM; with SF-539 CNS, > 100 µM; in the experiment with DU-145 prostate it was > 100 µM; in the experiment with OVCAR-5 ovarian, > 100 µM. Besides, the TGI in the experiment with HS 578T breast, in the experiment on NCI-H23 lung, in the experiment with NCI-H460 lung, with SN12C renal, with HT29 colon and with PC-3 prostate was > 100 µM each time. Moreover, the TGI with MCF7 breast, in the experiment with SF-268 CNS, with KM12 colon, in the experiment on U251 CNS, in the experiment on MDA-MB-231 breast and in the experiment with SK-OV-3 ovarian was > 100 µM each time.
For `CSc1nc(C)cc(=O)n1C1OC(COC(C)=O)C(OC(C)=O)C(OC(C)=O)C1OC(C)=O` (stereo not given), the TGI in the experiment on K-562 leukemia, with EKVX NSCLC, with HCC-2998 colon, in the experiment on OVCAR-5 ovarian, in the experiment on NCI-H23 lung and in the experiment with NCI-H460 lung was > 100 µM each time. Besides, the TGI in the experiment on SN12C renal, with HT29 colon, in the experiment with SF-268 CNS, in the experiment with KM12 colon, in the experiment with U251 CNS and in the experiment with SK-OV-3 ovarian was > 100 µM each time.
Turning to `CO[C@]12C[C@@H](CNC(=O)c3cc(Br)c[nH]3)O[C@H]1NC(=O)N2`, the TGI in the experiment with K-562 leukemia, in the experiment with EKVX NSCLC, in the experiment on HCC-2998 colon, in the experiment on SF-539 CNS, in the experiment with DU-145 prostate and with OVCAR-5 ovarian was > 100 µM in each case. Moreover, the TGI in the experiment with HS 578T breast, with NCI-H23 lung, with NCI-H460 lung, in the experiment on SN12C renal, with HT29 colon and in the experiment with PC-3 prostate was > 100 µM throughout. Moreover, the TGI in the experiment with MCF7 breast, in the experiment with SF-268 CNS, in the experiment with KM12 colon, with U251 CNS, with MDA-MB-231 breast and with SK-OV-3 ovarian was > 100 µM throughout.
